Data as given in patent US20250313533A1, “QUINOLINE CARBOXYLIC ACID ESTER COMPOUND AND PREPARATION METHOD AND USE THEREOF” (priority 2019, published 2025).

Legend:
[1] = tested on: fruit blotch in watermelons; assay: whole plant or invertebrate; details: read-out: efficacy against fruit blotch in watermelons
[2] = tested on: pathogenic bacteria causing fire blight in pears; assay: In vitro bactericidal activity, fire blight in pears; assay type: cell-based, erwinia; details: Erwinia, read-out: inhibitory rate; for inhibition at 1 ppm: dosage 1 ppm; for inhibition at 5 ppm: dosage 5 ppm
[3] = tested on: soft rot in Chinese cabbages; assay: whole plant or invertebrate; details: 48 h, read-out: efficacy against soft rot in Chinese cabbages
[4] = tested on: pathogenic bacteria causing bacterial wilt in tobacco; assay: whole plant or invertebrate; assay type: cell-based, ralstonia; details: read-out: inhibitory rate
[5] = tested on: pathogenic bacteria causing stem rot in sweet potatoes; assay: In vitro bactericidal activity, stem rot in sweet potatoes; assay type: cell-based, dikia; details: read-out: inhibitory rate; for inhibition at 1 ppm: dosage 1 ppm; for inhibition at 5 ppm: dosage 5 ppm
[6] = tested on: pathogenic bacteria causing black rot in Chinese cabbages; assay: In vitro bactericidal activity, black rot in Chinese cabbages; assay type: cell-based, xanthomonas; details: Xanthomonas, read-out: inhibitory rate; for inhibition at 1 ppm: dosage 1 ppm; for inhibition at 5 ppm: dosage 5 ppm
black shank in potatoes = assay: Living crops in vivo protective activity, potatoes (root irrigation); details: Solanum tuberosum, read-out: efficacy against black shank in potatoes; for pest or weed control at 5 ppm: dosage 5 ppm; for pest or weed control at 10 ppm: dosage 10 ppm
Experimental: Root irrigation was carried out on the potatoes for tests according to the designed concentration of the agents. The dosage for each plant was 200 mL and was kept consistent (also for the control). The black shank bacteria were inoculated on the second day after the application. The results were investigated according to the disease condition.

cucumber seedlings = assay: Safety for plant growth after application; assay type: in vivo; details: dosage 200 ppm
Outline: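 Safety to the crop is assessed on cucumber seedlings in indoor pots by tracking how treatment alters leaf area, chlorophyll level and height growth rate.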

[7] = tested on: pathogenic bacteria causing bacterial angular leaf spot in cucumbers; assay: In vitro bactericidal activity, bacterial angular leaf spot in cucumbers; assay type: cell-based, pseudomonas; details: read-out: inhibitory rate; for inhibition at 1 ppm: dosage 1 ppm; for inhibition at 5 ppm: dosage 5 ppm
[8] = tested on: stem rot in sweet potatoes; assay: whole plant or invertebrate; details: read-out: efficacy against stem rot in sweet potatoes
[9] = tested on: bacterial wilt in tobacco; assay: whole plant or invertebrate; details: Nicotiana tabacum, read-out: efficacy against bacterial wilt in tobacco
[10] = tested on: pathogenic bacteria causing bacterial blight in rice; assay: whole plant or invertebrate; assay type: cell-based, xanthomonas; details: read-out: inhibitory rate
[11] = tested on: pathogenic bacteria causing fruit blotch in watermelons; assay: In vitro bactericidal activity, fruit blotch in watermelons; assay type: cell-based, acidovorax; details: read-out: inhibitory rate; for inhibition at 1 ppm: dosage 1 ppm; for inhibition at 5 ppm: dosage 5 ppm
bacterial blight in rice = assay: whole plant or invertebrate; details: Oryza sativa, read-out: efficacy against bacterial blight in rice
[12] = tested on: indoor potted cucumber seedlings; assay: Effect of improving growth and development of crops; assay type: in vivo; parameters: Rate of growth rate increase (%): concentration or dose not given beside the values; details: versus blank control; for Rate of chlorophyll content increase (%) / Rate of leaf area increase (%): 14 days after application; for Rate of growth rate increase (%): plant height 14 days after application; for Rate of leaf area increase (%): second leaf
Outline: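 Growth effects were scored as percent increases in height growth rate, second-leaf area and chlorophyll (SPAD meter), comparing values taken before and 14 days after application.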

[13] = tested on: pathogenic bacteria causing black shank in potatoes; assay: In vitro bactericidal activity, black shank in potatoes; assay type: cell-based; details: read-out: inhibitory rate; for inhibition at 1 ppm: dosage 1 ppm; for inhibition at 5 ppm: dosage 5 ppm
[14] = tested on: pathogenic bacteria causing bacterial wilt in cassava; assay: organism not typed; assay type: cell-based; details: read-out: inhibitory rate

## COCCCOC(=O)c1cn(C2CC2)c2cc(OC)c(F)cc2c1=O [Compound 323]
[1]
  pest or weed control at 5 ppm: ≥ 90%
  pest or weed control at 10 ppm: ≥ 90%
[2]
  inhibition at 1 ppm: ≥ 90%
  inhibition at 5 ppm: ≥ 90%
[3]
  pest or weed control at 5 ppm: ≥ 90%
  pest or weed control at 10 ppm: ≥ 90%
[4]
  inhibition at 1 ppm: ≥ 90%
  inhibition at 5 ppm: ≥ 90%
[5]
  inhibition at 1 ppm: ≥ 90%
  inhibition at 5 ppm: ≥ 90%
[6]
  inhibition at 1 ppm: ≥ 90%
  inhibition at 5 ppm: ≥ 90%
Black shank in potatoes
  pest or weed control at 5 ppm: ≥ 90%
  pest or weed control at 10 ppm: ≥ 90%
Cucumber seedlings
  safety for plant growth (discoloration, necrosis, wilt, malformation): safe for plant growth
[7]
  inhibition at 1 ppm: ≥ 90%
  inhibition at 5 ppm: ≥ 90%
[8]
  pest or weed control at 5 ppm: ≥ 90%
  pest or weed control at 10 ppm: ≥ 90%
[9]
  pest or weed control at 5 ppm: ≥ 90%
  pest or weed control at 10 ppm: ≥ 90%
[10]
  inhibition at 1 ppm: ≥ 90%
  inhibition at 5 ppm: ≥ 90%
[11]
  inhibition at 1 ppm: ≥ 90%
  inhibition at 5 ppm: ≥ 90%
Bacterial blight in rice
  pest or weed control at 5 ppm: ≥ 90%
  pest or weed control at 10 ppm: ≥ 90%
[12]
  Rate of chlorophyll content increase (%): 19%
  Rate of growth rate increase (%): 13%
  Rate of leaf area increase (%): 13%
[13]
  inhibition at 1 ppm: ≥ 90%
  inhibition at 5 ppm: ≥ 90%
[14]
  inhibition at 1 ppm: ≥ 90%
  inhibition at 5 ppm: ≥ 90%

## CCSc1cc2c(cc1F)c(=O)c(C(=O)OCCOC)cn2C1CC1 [Compound 382]
[1]
  pest or weed control at 5 ppm: ≥ 90%
  pest or weed control at 10 ppm: ≥ 90%
[2]
  inhibition at 1 ppm: ≥ 90%
  inhibition at 5 ppm: ≥ 90%
[3]
  pest or weed control at 5 ppm: ≥ 90%
  pest or weed control at 10 ppm: ≥ 90%
[4]
  inhibition at 1 ppm: ≥ 90%
  inhibition at 5 ppm: ≥ 90%
[5]
  inhibition at 1 ppm: ≥ 90%
  inhibition at 5 ppm: ≥ 90%
[6]
  inhibition at 1 ppm: ≥ 90%
  inhibition at 5 ppm: ≥ 90%
Black shank in potatoes
  pest or weed control at 5 ppm: ≥ 90%
  pest or weed control at 10 ppm: ≥ 90%
Cucumber seedlings
  safety for plant growth (discoloration, necrosis, wilt, malformation): safe for plant growth
[7]
  inhibition at 1 ppm: ≥ 90%
  inhibition at 5 ppm: ≥ 90%
[8]
  pest or weed control at 5 ppm: ≥ 90%
  pest or weed control at 10 ppm: ≥ 90%
[9]
  pest or weed control at 5 ppm: ≥ 90%
  pest or weed control at 10 ppm: ≥ 90%
[10]
  inhibition at 1 ppm: ≥ 90%
  inhibition at 5 ppm: ≥ 90%
[11]
  inhibition at 1 ppm: ≥ 90%
  inhibition at 5 ppm: ≥ 90%
Bacterial blight in rice
  pest or weed control at 5 ppm: ≥ 90%
  pest or weed control at 10 ppm: ≥ 90%
[12]
  Rate of chlorophyll content increase (%): 13%
  Rate of growth rate increase (%): 10%
  Rate of leaf area increase (%): 10%
[13]
  inhibition at 1 ppm: ≥ 90%
  inhibition at 5 ppm: ≥ 90%
[14]
  inhibition at 1 ppm: ≥ 90%
  inhibition at 5 ppm: ≥ 90%

## CN(C)c1cc2c(cc1F)c(=O)c(C(=O)OCCO)cn2C1CC1 [Compound 413]
[1]
  pest or weed control at 5 ppm: ≥ 90%
  pest or weed control at 10 ppm: ≥ 90%
[2]
  inhibition at 1 ppm: ≥ 90%
  inhibition at 5 ppm: ≥ 90%
[3]
  pest or weed control at 5 ppm: ≥ 90%
  pest or weed control at 10 ppm: ≥ 90%
[4]
  inhibition at 1 ppm: ≥ 90%
  inhibition at 5 ppm: ≥ 90%
[5]
  inhibition at 1 ppm: ≥ 90%
  inhibition at 5 ppm: ≥ 90%
[6]
  inhibition at 1 ppm: ≥ 90%
  inhibition at 5 ppm: ≥ 90%
Black shank in potatoes
  pest or weed control at 5 ppm: ≥ 90%
  pest or weed control at 10 ppm: ≥ 90%
Cucumber seedlings
  safety for plant growth (discoloration, necrosis, wilt, malformation): safe for plant growth
[7]
  inhibition at 1 ppm: ≥ 90%
  inhibition at 5 ppm: ≥ 90%
[8]
  pest or weed control at 5 ppm: ≥ 90%
  pest or weed control at 10 ppm: ≥ 90%
[9]
  pest or weed control at 5 ppm: ≥ 90%
  pest or weed control at 10 ppm: ≥ 90%
[10]
  inhibition at 1 ppm: ≥ 90%
  inhibition at 5 ppm: ≥ 90%
[11]
  inhibition at 1 ppm: ≥ 90%
  inhibition at 5 ppm: ≥ 90%
Bacterial blight in rice
  pest or weed control at 5 ppm: ≥ 90%
  pest or weed control at 10 ppm: ≥ 90%
[12]
  Rate of chlorophyll content increase (%): 13%
  Rate of growth rate increase (%): 15%
  Rate of leaf area increase (%): 16%
[13]
  inhibition at 1 ppm: ≥ 90%
  inhibition at 5 ppm: ≥ 90%
[14]
  inhibition at 1 ppm: ≥ 90%
  inhibition at 5 ppm: ≥ 90%

## COCCOC(=O)c1cn(C2CC2)c2cc(OC)c(F)cc2c1=O [Compound 281]
[1]
  pest or weed control at 5 ppm: ≥ 90%
  pest or weed control at 10 ppm: ≥ 90%
[2]
  inhibition at 1 ppm: ≥ 90%
  inhibition at 5 ppm: ≥ 90%
[3]
  pest or weed control at 5 ppm: ≥ 90%
  pest or weed control at 10 ppm: ≥ 90%
[4]
  inhibition at 1 ppm: ≥ 90%
  inhibition at 5 ppm: ≥ 90%
[5]
  inhibition at 1 ppm: ≥ 90%
  inhibition at 5 ppm: ≥ 90%
[6]
  inhibition at 1 ppm: ≥ 90%
  inhibition at 5 ppm: ≥ 90%
Black shank in potatoes
  pest or weed control at 5 ppm: ≥ 90%
  pest or weed control at 10 ppm: ≥ 90%
Cucumber seedlings
  safety for plant growth (discoloration, necrosis, wilt, malformation): safe for plant growth
[7]
  inhibition at 1 ppm: ≥ 90%
  inhibition at 5 ppm: ≥ 90%
[8]
  pest or weed control at 5 ppm: ≥ 90%
  pest or weed control at 10 ppm: ≥ 90%
[9]
  pest or weed control at 5 ppm: ≥ 90%
  pest or weed control at 10 ppm: ≥ 90%
[10]
  inhibition at 1 ppm: ≥ 90%
  inhibition at 5 ppm: ≥ 90%
[11]
  inhibition at 1 ppm: ≥ 90%
  inhibition at 5 ppm: ≥ 90%
Bacterial blight in rice
  pest or weed control at 5 ppm: ≥ 90%
  pest or weed control at 10 ppm: ≥ 90%
[12]
  Rate of chlorophyll content increase (%): 16%
  Rate of growth rate increase (%): 13%
  Rate of leaf area increase (%): 13%
[13]
  inhibition at 1 ppm: ≥ 90%
  inhibition at 5 ppm: ≥ 90%
[14]
  inhibition at 1 ppm: ≥ 90%
  inhibition at 5 ppm: ≥ 90%
